Test results taken from US6497900B2, “Effervescent base” (priority 1997, dated 2002).

Experiment: Breakdown of acid-sensitive active substances in the effervescent system
Assay type: physicochemical
Details: in the effervescent system according to the invention, also in a stress situation

NC(N)=Nc1nc(CSCCC(N)=NS(N)(=O)=O)cs1 [famotidine]
tendency of active substance to break down and form decomposition products: substantially lower tendency
